# Laboratory results from patent publication US8541588B2, “Sulfonamide derivatives” (Pfizer Limited, priority 2009, dated 2013).
# Molecular target: T1, Nav1.7 (or SCN9A) channel; HEK cells stably transfected with hSCN9A (Homo sapiens, UniProt Q15858)
# T1 construct: expressed in transfected cells
# Test: Nav1.7 block, PatchXpress 7000 automated whole-cell voltage clamp, estimated IC50 (EIC50)
# Format: cell-based
# Conditions: estimated IC50; hSCN9A HEK cells, PatchXpress platform; Examples 283-814
# T1 sequence (Q15858 whole entry): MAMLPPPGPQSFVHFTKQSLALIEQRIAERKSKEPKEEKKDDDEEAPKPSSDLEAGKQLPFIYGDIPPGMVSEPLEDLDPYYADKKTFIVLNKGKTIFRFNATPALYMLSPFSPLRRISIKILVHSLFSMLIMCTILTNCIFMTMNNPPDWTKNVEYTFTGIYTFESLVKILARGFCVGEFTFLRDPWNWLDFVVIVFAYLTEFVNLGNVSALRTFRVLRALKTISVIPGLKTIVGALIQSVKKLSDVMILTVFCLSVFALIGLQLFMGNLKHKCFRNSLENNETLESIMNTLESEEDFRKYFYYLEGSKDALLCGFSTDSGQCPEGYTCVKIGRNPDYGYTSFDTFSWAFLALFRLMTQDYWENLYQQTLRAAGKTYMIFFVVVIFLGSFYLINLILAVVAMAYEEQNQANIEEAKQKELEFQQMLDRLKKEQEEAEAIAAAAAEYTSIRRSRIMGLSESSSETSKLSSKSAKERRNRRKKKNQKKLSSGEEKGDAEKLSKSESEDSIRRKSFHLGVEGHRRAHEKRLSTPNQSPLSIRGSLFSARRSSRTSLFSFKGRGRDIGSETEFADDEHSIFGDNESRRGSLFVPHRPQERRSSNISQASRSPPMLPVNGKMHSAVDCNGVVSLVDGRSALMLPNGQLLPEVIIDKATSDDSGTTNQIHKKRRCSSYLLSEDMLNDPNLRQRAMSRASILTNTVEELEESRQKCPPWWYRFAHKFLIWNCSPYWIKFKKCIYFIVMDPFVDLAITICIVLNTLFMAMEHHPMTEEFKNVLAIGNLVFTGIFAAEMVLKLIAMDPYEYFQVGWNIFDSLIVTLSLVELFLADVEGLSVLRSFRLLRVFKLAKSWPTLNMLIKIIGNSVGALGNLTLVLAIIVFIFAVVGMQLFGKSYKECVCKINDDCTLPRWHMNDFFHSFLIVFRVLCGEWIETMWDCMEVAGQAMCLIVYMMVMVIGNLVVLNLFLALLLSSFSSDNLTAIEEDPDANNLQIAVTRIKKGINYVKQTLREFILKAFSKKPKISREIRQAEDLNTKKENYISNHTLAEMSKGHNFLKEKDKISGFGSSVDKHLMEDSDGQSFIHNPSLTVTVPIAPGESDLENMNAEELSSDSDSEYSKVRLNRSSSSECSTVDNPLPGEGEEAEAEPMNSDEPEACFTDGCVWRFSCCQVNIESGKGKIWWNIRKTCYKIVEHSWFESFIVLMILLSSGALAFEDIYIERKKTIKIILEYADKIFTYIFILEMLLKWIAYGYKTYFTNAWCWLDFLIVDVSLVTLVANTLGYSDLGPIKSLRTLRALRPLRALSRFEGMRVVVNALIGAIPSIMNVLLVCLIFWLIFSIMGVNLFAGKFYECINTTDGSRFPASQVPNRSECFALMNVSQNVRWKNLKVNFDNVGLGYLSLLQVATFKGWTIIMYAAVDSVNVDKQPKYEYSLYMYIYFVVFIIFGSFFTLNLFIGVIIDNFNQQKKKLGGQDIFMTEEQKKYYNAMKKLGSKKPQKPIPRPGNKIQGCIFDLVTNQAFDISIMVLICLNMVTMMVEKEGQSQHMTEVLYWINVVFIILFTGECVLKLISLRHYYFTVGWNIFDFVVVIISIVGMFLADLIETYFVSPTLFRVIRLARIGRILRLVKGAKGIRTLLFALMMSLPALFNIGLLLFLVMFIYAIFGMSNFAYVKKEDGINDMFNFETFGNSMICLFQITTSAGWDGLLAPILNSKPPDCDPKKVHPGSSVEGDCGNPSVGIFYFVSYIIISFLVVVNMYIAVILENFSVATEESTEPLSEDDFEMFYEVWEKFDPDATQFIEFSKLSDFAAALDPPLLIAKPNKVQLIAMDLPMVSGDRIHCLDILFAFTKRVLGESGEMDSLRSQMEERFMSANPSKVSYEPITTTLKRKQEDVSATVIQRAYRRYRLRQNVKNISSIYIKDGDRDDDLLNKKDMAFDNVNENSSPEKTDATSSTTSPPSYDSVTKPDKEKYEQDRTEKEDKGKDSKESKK
row,IC50 [nM],SMILES
1,>1000,"CC(C)(C)NC(=O)c1cnn(-c2ccc(Oc3ccc(S(=O)(=O)Nc4nccs4)cc3C#N)cc2)c1 [Example 378, N-tert-butyl-1-(4-{2-cyano-4-[(1,3-thiazol-2-ylamino)sulfonyl]phenoxy}phenyl)-1H-pyrazole-4-carboxamide]"
2,310,"Cn1nc(C(F)F)cc1-c1ccc(Oc2ccc(S(=O)(=O)Nc3nccs3)cc2C#N)cc1 [Example 383, 3-cyano-4-{4-[3-(difluoromethyl)-1-methyl-1H-pyrazol-5-yl]phenoxy}-N-1,3-thiazol-2-ylbenzenesulfonamide]"
3,350,"N#Cc1cc(S(=O)(=O)Nc2nccs2)ccc1Oc1ccc(-n2cc(Cl)cn2)c(Cl)c1 [Example 384, 4-[3-chloro-4-(4-chloro-1H-pyrazol-1-yl)phenoxy]-3-cyano-N-1,3-thiazol-2-ylbenzenesulfonamide]"
4,140,"Cn1nc(C(F)(F)F)cc1-c1ccc(Oc2ccc(S(=O)(=O)Nc3ncc(F)s3)cc2C#N)cc1 [Example 387, 3-cyano-N-(5-fluoro-1,3-thiazol-2-yl)-4-{4-[1-methyl-3-(trifluoromethyl)-1H-pyrazol-5-yl]phenoxy}benzenesulfonamide]"
5,1100,"Cc1nn(C)cc1-c1ccc(Oc2ccc(S(=O)(=O)Nc3nccs3)cc2C#N)cc1 [Example 389, 3-cyano-4-[4-(1,3-dimethyl-1H-pyrazol-4-yl)phenoxy]-N-1,3-thiazol-2-ylbenzenesulfonamide]"
6,300,"N#Cc1cc(S(=O)(=O)Nc2nccs2)ccc1Oc1cccc(-n2nc(C(F)F)cc2CO)c1 [Example 390, 3-cyano-4-{3-[3-(difluoromethyl)-5-(hydroxymethyl)-1H-pyrazol-1-yl]phenoxy}-N-1,3-thiazol-2-ylbenzenesulfonamide]"
7,>1000,"N#Cc1cc(S(=O)(=O)Nc2cscn2)ccc1Oc1ccc(Cl)cc1-c1ccn(C(F)(F)F)n1 [Example 398, 4-{4-chloro-2-[1-(trifluoromethyl)-1H-pyrazol-3-yl]phenoxy}-3-cyano-N-1,3-thiazol-4-ylbenzenesulfonamide]"
8,1200,"CCn1nc(C(F)(F)F)cc1-c1ccc(Oc2cc(F)c(S(=O)(=O)Nc3ccc(F)cn3)cc2Cl)cc1 [Example 404, 5-chloro-4-{4-[1-ethyl-3-(trifluoromethyl)-1H-pyrazol-5-yl]phenoxy}-2-fluoro-N-(5-fluoropyridin-2-yl)benzenesulfonamide]"
9,2.7,"Nc1cc(-c2cc(F)ccc2Oc2cc(F)c(S(=O)(=O)Nc3ncns3)cc2Cl)ccn1 [Example 405, 4-[2-(2-aminopyridin-4-yl)-4-fluorophenoxy]-5-chloro-2-fluoro-N-1,2,4-thiadiazol-5-ylbenzenesulfonamide]"
10,300,"CCn1nc(C(F)(F)F)cc1-c1ccc(Oc2ccc(S(=O)(=O)Nc3nccs3)cc2F)cc1 [Example 408, 4-{4-[1-ethyl-3-(trifluoromethyl)-1H-pyrazol-5-yl]phenoxy}-3-fluoro-N-1,3-thiazol-2-ylbenzenesulfonamide]"
11,29,"Nc1ccc(-c2cc(Cl)ccc2Oc2cc(F)c(S(=O)(=O)Nc3ncns3)cc2F)cn1 [Example 410, 4-[2-(6-aminopyridin-3-yl)-4-chlorophenoxy]-2,5-difluoro-N-1,2,4-thiadiazol-5-ylbenzenesulfonamide]"

# The next lines start with the compound.
row,SMILES,IC50 [nM]
1,"N#Cc1cc(S(=O)(=O)Nc2nccs2)ccc1Oc1ccc(-n2cc(C(N)=O)cn2)cc1 [Example 379, 1-(4-{2-cyano-4-[(1,3-thiazol-2-ylamino)sulfonyl]phenoxy}phenyl)-1H-pyrazole-4-carboxamide]",>1000
2,"N#Cc1cc(S(=O)(=O)Nc2nccs2)ccc1Oc1ccc(-n2ccc(C(F)(F)F)n2)c(Cl)c1 [Example 380, 4-{3-chloro-4-[3-(trifluoromethyl)-1H-pyrazol-1-yl]phenoxy}-3-cyano-N-1,3-thiazol-2-ylbenzenesulfonamide]",200
3,"N#Cc1cc(S(=O)(=O)Nc2nccs2)ccc1Oc1ccc(-n2ccc(C(F)(F)F)n2)c(F)c1 [Example 381, 3-cyano-4-{3-fluoro-4-[3-(trifluoromethyl)-1H-pyrazol-1-yl]phenoxy}-N-1,3-thiazol-2-ylbenzenesulfonamide]",470
4,"N#Cc1cc(S(=O)(=O)Nc2nccs2)ccc1Oc1ccc(-c2cc(C(F)(F)F)nn2CCO)cc1 [Example 382, 3-cyano-4-{4-[1-(2-hydroxyethyl)-3-(trifluoromethyl)-1H-pyrazol-5-yl]phenoxy}-N-1,3-thiazol-2-ylbenzenesulfonamide]",50
5,"N#Cc1cc(S(=O)(=O)Nc2ncns2)ccc1Oc1ccccc1-c1cn[nH]c1 [Example 385, 4-(2-(1H-pyrazol-4-yl)phenoxy)-3-cyano-N-(1,2,4-thiadiazol-5-yl)benzenesulfonamide]",67
6,"Cn1nccc1-c1cc(F)ccc1Oc1ccc(S(=O)(=O)Nc2ncc(F)s2)cc1C#N [Example 386, 3-cyano-4-[4-fluoro-2-(1-methyl-1H-pyrazol-5-yl)phenoxy]-N-(5-fluoro-1,3-thiazol-2-yl)benzenesulfonamide]",91
7,"CCn1nc(C)cc1-c1ccc(Oc2ccc(S(=O)(=O)Nc3nccs3)cc2C#N)cc1 [Example 388, 3-cyano-4-[4-(1-ethyl-3-methyl-1H-pyrazol-5-yl)phenoxy]-N-1,3-thiazol-2-ylbenzenesulfonamide]",740
8,"N#Cc1cc(S(=O)(=O)Nc2nccs2)ccc1Oc1ccc(I)cc1-c1ccn[nH]1 [Example 391, 3-cyano-4-[4-iodo-2-(1H-pyrazol-5-yl)phenoxy]-N-1,3-thiazol-2-ylbenzenesulfonamide]",2.5
9,"N#Cc1cc(S(=O)(=O)Nc2cscn2)ccc1Oc1ccc(Cl)cc1-c1ccnc(N)c1 [Example 392, 4-[2-(2-aminopyridin-4-yl)-4-chlorophenoxy]-3-cyano-N-1,3-thiazol-4-ylbenzenesulfonamide]",140
10,"N#Cc1cc(S(=O)(=O)Nc2cscn2)ccc1Oc1ccc(Cl)cc1-c1cn[nH]c1N [Example 393, 4-[2-(5-amino-1H-pyrazol-4-yl)-4-chlorophenoxy]-3-cyano-N-1,3-thiazol-4-ylbenzenesulfonamide]",990
11,"N#Cc1cc(S(=O)(=O)Nc2cscn2)ccc1Oc1ccc(Cl)cc1-c1cnn(C(F)F)c1 [Example 394, 4-{4-chloro-2-[1-(difluoromethyl)-1H-pyrazol-4-yl]phenoxy}-3-cyano-N-1,3-thiazol-4-ylbenzenesulfonamide]",2900
12,"Cn1nc(C(F)(F)F)cc1-c1cc(Cl)ccc1Oc1ccc(S(=O)(=O)Nc2cscn2)cc1C#N [Example 395, 4-{4-chloro-2-[1-methyl-3-(trifluoromethyl)-1H-pyrazol-5-yl]phenoxy}-3-cyano-N-1,3-thiazol-4-ylbenzenesulfonamide]",1800
13,"CC(C)Oc1cc(-c2cc(F)ccc2Oc2ccc(S(=O)(=O)Nc3cscn3)cc2C#N)n(C)n1 [Example 396, 3-cyano-4-[4-fluoro-2-(3-isopropoxy-1-methyl-1H-pyrazol-5-yl)phenoxy]-N-1,3-thiazol-4-ylbenzenesulfonamide]",>3000
14,"N#Cc1cc(S(=O)(=O)Nc2cscn2)ccc1Oc1ccc(Cl)cc1-n1cnc(C(F)(F)F)c1 [Example 397, 4-{4-chloro-2-[4-(trifluoromethyl)-1H-imidazol-1-yl]phenoxy}-3-cyano-N-1,3-thiazol-4-ylbenzenesulfonamide]",>1000
15,"N#Cc1cc(S(=O)(=O)Nc2cscn2)ccc1Oc1ccc(Cl)cc1-c1ccnn1C(F)(F)F [Example 399, 4-{4-chloro-2-[1-(trifluoromethyl)-1H-pyrazol-5-yl]phenoxy}-3-cyano-N-1,3-thiazol-4-ylbenzenesulfonamide]",1200
16,"Cn1nccc1-c1ccccc1Oc1ccc(S(=O)(=O)Nc2cscn2)cc1C#N [Example 400, 3-cyano-4-[2-(1-methyl-1H-pyrazol-5-yl)phenoxy]-N-1,3-thiazol-4-ylbenzenesulfonamide]",1200
17,"CCn1nc(C(F)(F)F)cc1-c1ccc(Oc2ccc(S(=O)(=O)Nc3cscn3)cc2C#N)cc1 [Example 401, 3-cyano-4-{4-[1-ethyl-3-(trifluoromethyl)-1H-pyrazol-5-yl]phenoxy}-N-1,3-thiazol-4-ylbenzenesulfonamide]",2700
18,"N#Cc1cc(S(=O)(=O)Nc2cscn2)ccc1Oc1ccc(Cl)cc1-c1ccnn1C(F)F [Example 402, 4-{4-chloro-2-[1-(difluoromethyl)-1H-pyrazol-5-yl]phenoxy}-3-cyano-N-1,3-thiazol-4-ylbenzenesulfonamide]",250
19,"Nc1cccc(-c2cc(Cl)ccc2Oc2cc(F)c(S(=O)(=O)Nc3ncns3)cc2Cl)n1 [Example 403, 4-[2-(6-aminopyridin-2-yl)-4-chlorophenoxy]-5-chloro-2-fluoro-N-1,2,4-thiadiazol-5-ylbenzenesulfonamide]",4.5
20,"Cn1ncnc1-c1cc(Cl)ccc1Oc1ccc(S(=O)(=O)Nc2nccs2)cc1F [Example 406, 4-[4-chloro-2-(1-methyl-1H-1,2,4-triazol-5-yl)phenoxy]-3-fluoro-N-1,3-thiazol-2-ylbenzenesulfonamide]",3000
21,"Nc1cccc(-c2cc(F)ccc2Oc2cc(F)c(S(=O)(=O)Nc3ncns3)cc2F)n1 [Example 407, 4-[2-(6-aminopyridin-2-yl)-4-fluorophenoxy]-2,5-difluoro-N-1,2,4-thiadiazol-5-ylbenzenesulfonamide]",190
22,"Nc1cccc(-c2cc(Cl)ccc2Oc2cc(F)c(S(=O)(=O)Nc3ncns3)cc2F)n1 [Example 409, 4-[2-(6-aminopyridin-2-yl)-4-chlorophenoxy]-2,5-difluoro-N-1,2,4-thiadiazol-5-ylbenzenesulfonamide]",19
23,"Nc1ccc(-c2cc(Cl)ccc2Oc2cc(F)c(S(=O)(=O)Nc3ncns3)cc2F)nc1 [Example 411, 4-[2-(5-aminopyridin-2-yl)-4-chlorophenoxy]-2,5-difluoro-N-1,2,4-thiadiazol-5-ylbenzenesulfonamide]",540
24,"O=S(=O)(Nc1ncns1)c1cc(Cl)c(Oc2ccc(OC(F)F)cc2C2CCNCC2)cc1F [Example 412, 5-chloro-4-[4-(difluoromethoxy)-2-piperidin-4-ylphenoxy]-2-fluoro-N-1,2,4-thiadiazol-5-ylbenzenesulfonamide]",2.5
